# Measured values: BindingDB's records for patent US20240148821 (Chugai Seiyaku Kabushiki Kaisha, 2024)
# Numbered stars: 1 amine (or outer) side, 2 acyl side, 3 side chain; on linkers, the order of the positions; unused ones are H or OH. Bridge positions count the residues as written; N and C are the ends. Square brackets hold non-standard residues; d marks the D form. Peptide text beside a SMILES is read from it. * marks the point of attachment. ξ: configuration not given here. hPhe(3,5-F2-4-CF3) = N[C@@H](CCc1cc(F)c(C(F)(F)F)c(F)c1)C(=O)O; hPhe(3-Cl-4-CF3) = N[C@@H](CCc1ccc(C(F)(F)F)c(Cl)c1)C(=O)O; hPhe(3-F,4-CF3) = N[C@@H](CCc1ccc(C(F)(F)F)c(F)c1)C(=O)O; NMeGly(COCH2cHex) = CN[C@H](C(=O)O)C(=O)CC1CCCCC1; X54 = COc1cc(CC[C@H](N[*:1])C(=O)[*:2])cc(Cl)c1Cl; X63 = O=C([C@H](CCc1ccc(C(F)F)c(F)c1)N[*:1])[*:2]; X96 = O=C([C@H](CCc1ccc(C(F)(F)F)nc1)N[*:1])[*:2]; Piperazinyl(4-(3-oxetanyl)) = C1OCC1N1CCN(*)CC1; X55 = Cn1ccc2ccc(CC[C@H](N[*:1])C(=O)[*:2])cc21; X44 = O=C([C@H](CCc1ccc2cccnc2c1)N[*:1])[*:2]; X85 = O=C([C@H](CCc1ccc2ncccc2c1)N[*:1])[*:2]; NMeGly(cPent) = CN[C@H](C(=O)O)C1CCCC1; NMeCha = CN[C@@H](CC1CCCCC1)C(=O)O; cisHyp = O=C(O)[C@@H]1C[C@H](O)CN1; ξPro(4,4-F2) = O=C(O)C1CC(F)(F)CN1; Hyp = O=C(O)[C@@H]1C[C@@H](O)CN1; NMeChg = CN[C@H](C(=O)O)C1CCCCC1; NMeI = CC[C@H](C)[C@H](NC)C(=O)O; NMeD = CN[C@@H](CC(=O)O)C(=O)O; NMeL = CN[C@@H](CC(C)C)C(=O)O; d(β3hA) = C[C@@H](N)CC(=O)O; NMeA = CN[C@@H](C)C(=O)O; Piperidide = C1CCN(*)CC1; Pyrrolidide = C1CCN(*)C1; Ac5c = NC1(C(=O)O)CCCC1; Aze = O=C(O)[C@@H]1CCN1; Ac4c = NC1(C(=O)O)CCC1; ξP = O=C(O)C1CCCN1; Sar = CNCC(=O)O
# Molecular target: GTPase KRas (G12D) and Son of Sevenless Homolog 1 (SOS) (Homo sapiens, UniProt P01116, G12D)
# Sequence (P01116 whole entry G12D): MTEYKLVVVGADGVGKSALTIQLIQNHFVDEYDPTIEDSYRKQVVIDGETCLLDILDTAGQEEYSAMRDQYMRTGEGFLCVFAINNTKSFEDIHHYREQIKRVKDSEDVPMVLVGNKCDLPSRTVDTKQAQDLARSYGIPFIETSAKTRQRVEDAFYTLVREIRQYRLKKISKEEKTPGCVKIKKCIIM
# Sequence (Q07889 whole entry, further chain): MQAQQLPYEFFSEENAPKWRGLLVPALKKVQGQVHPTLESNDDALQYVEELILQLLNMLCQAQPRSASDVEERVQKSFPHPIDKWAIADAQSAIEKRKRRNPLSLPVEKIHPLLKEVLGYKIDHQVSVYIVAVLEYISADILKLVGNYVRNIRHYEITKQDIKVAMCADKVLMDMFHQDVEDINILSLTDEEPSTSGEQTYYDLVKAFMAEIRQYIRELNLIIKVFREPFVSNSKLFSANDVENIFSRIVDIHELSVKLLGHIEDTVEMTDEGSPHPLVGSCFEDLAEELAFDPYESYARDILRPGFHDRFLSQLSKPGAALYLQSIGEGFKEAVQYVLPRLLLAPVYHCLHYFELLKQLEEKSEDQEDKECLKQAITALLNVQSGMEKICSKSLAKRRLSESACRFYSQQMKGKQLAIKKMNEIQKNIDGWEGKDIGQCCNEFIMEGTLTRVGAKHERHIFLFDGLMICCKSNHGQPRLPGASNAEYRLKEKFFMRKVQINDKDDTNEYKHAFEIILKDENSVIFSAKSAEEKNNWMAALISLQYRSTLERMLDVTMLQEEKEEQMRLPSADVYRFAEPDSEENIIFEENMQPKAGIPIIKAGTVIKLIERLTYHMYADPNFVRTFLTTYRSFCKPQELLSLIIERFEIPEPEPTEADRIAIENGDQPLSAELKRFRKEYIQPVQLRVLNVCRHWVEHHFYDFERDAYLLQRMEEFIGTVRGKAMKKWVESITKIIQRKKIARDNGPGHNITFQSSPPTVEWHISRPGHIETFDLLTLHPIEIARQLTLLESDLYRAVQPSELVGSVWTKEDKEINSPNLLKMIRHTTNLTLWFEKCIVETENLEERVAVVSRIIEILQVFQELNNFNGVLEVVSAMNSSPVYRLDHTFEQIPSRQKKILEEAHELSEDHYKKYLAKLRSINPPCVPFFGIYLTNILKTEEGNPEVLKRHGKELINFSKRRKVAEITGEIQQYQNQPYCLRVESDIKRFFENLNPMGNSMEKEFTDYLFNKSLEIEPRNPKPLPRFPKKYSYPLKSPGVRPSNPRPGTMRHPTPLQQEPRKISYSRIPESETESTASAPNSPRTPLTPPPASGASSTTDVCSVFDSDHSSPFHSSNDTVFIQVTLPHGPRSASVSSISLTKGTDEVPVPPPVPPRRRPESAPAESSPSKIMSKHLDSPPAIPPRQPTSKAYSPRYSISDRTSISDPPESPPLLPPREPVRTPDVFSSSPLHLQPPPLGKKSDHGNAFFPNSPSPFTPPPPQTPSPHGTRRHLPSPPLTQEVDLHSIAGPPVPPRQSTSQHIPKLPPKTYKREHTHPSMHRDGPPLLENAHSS
# Test: AlphaScreen Assay
# Procedure: Protein-protein interaction inhibition (PPI) between Kras and SOS1 was measured by energy transfer from nickel-conjugated donor beads to streptavidin-conjugated acceptor beads using biotin-tagged human Kras expressed in E. coli and loaded with GDP after purification and His-tagged human SOS1 enzyme. This measurement utilizes the phenomenon in which donor beads are irradiated with light at 680 nm, such that energy is transferred to acceptor beads through singlet oxygen and light at 520-620 nm is detected from the acceptor beads.
row,SMILES,IC50
1,"CC[C@H](C)[C@@H]1NC(=O)[C@H](CC(C)C)N(C)C(=O)C[C@@H](C(=O)N2CCN(C3COC3)CC2)NC(=O)[C@H]([C@@H](C)CC)N(C)C(=O)C2(CCCC2)NC(=O)C2CCCN2C(=O)[C@H](CCc2ccc(C(F)(F)F)c(Cl)c2)NC(=O)CN(C)C(=O)[C@H](C(=O)CC2CCCCC2)N(C)C(=O)CN(C)C(=O)CN(C)C1=O (stereo partly drawn) [US20240148821, Compound 1191] ([NMeL]I[Sar][Sar][NMeGly(COCH2cHex)][Sar][hPhe(3-Cl-4-CF3)][ξP][Ac5c][NMeI]D-{Piperazinyl(4-(3-oxetanyl))}; lactam N-11)",6.7 nM
2,"CC[C@H](C)[C@@H]1NC(=O)[C@H](CC(C)C)N(C)C(=O)C[C@@H](C)NC(=O)[C@H](CC(C)C)N(C)C(=O)C2(CCCC2)NC(=O)[C@@H]2C[C@@H](O)CN2C(=O)[C@H](CCc2ccc(C(F)(F)F)c(F)c2)NC(=O)CN(C)C(=O)[C@H](CC2CCCCC2)N(C)C(=O)CN(C)C(=O)CN(C)C1=O [US20240148821, Compound 1483] (cyclo([Ac5c][NMeL][d(β3hA)][NMeL]I[Sar][Sar][NMeCha][Sar][hPhe(3-F,4-CF3)][Hyp]))",34 nM
3,"CC[C@H](C)[C@@H]1NC(=O)[C@H](CC(C)C)N(C)C(=O)C[C@@H](C(=O)N2CCCCC2)N(C)C(=O)[C@H](C2CCCC2)N(C)C(=O)C2(CCCC2)NC(=O)[C@@H]2CCCN2C(=O)[C@H](CCc2ccc3ccn(C)c3c2)NC(=O)CN(C)C(=O)[C@H](CC2CCCCC2)N(C)C(=O)[C@@H]2CCN2C(=O)[C@H](C)N(C)C1=O [US20240148821, Compound 2065] ([NMeL]I[NMeA][Aze][NMeCha][Sar][X55]P[Ac5c][NMeGly(cPent)][NMeD]-Piperidide; lactam N-11)",16 nM
4,"CC[C@H](C)[C@@H]1NC(=O)[C@H](CC(C)C)N(C)C(=O)C[C@@H](C(=O)N2CCCCC2)N(C)C(=O)[C@H](C2CCCC2)N(C)C(=O)C2(CCCC2)NC(=O)[C@@H]2CCCN2C(=O)[C@H](CCc2ccc3ncccc3c2)NC(=O)CN(C)C(=O)[C@H](CC2CCCCC2)N(C)C(=O)[C@@H]2CCN2C(=O)[C@H](C)N(C)C1=O [US20240148821, Compound 2070] ([NMeL]I[NMeA][Aze][NMeCha][Sar][X85]P[Ac5c][NMeGly(cPent)][NMeD]-Piperidide; lactam N-11)",18 nM
5,"CC[C@H](C)[C@@H]1NC(=O)[C@H](CC(C)C)N(C)C(=O)C[C@@H](C(=O)N2CCCCC2)N(C)C(=O)[C@H](C2CCCC2)N(C)C(=O)C2(CCCC2)NC(=O)[C@@H]2CCCN2C(=O)[C@H](CCc2ccc3cccnc3c2)NC(=O)CN(C)C(=O)[C@H](CC2CCCCC2)N(C)C(=O)[C@@H]2CCN2C(=O)[C@H](C)N(C)C1=O [US20240148821, Compound 2077] ([NMeL]I[NMeA][Aze][NMeCha][Sar][X44]P[Ac5c][NMeGly(cPent)][NMeD]-Piperidide; lactam N-11)",47 nM
6,"CC[C@H](C)[C@@H]1NC(=O)[C@H](CC(C)C)N(C)C(=O)C[C@@H](C(=O)N2CCCCC2)N(C)C(=O)[C@H](C2CCCC2)N(C)C(=O)C2(CCCC2)NC(=O)[C@@H]2CCCN2C(=O)[C@H](CCc2ccc(C(F)(F)F)nc2)NC(=O)CN(C)C(=O)[C@H](CC2CCCCC2)N(C)C(=O)[C@@H]2CCN2C(=O)[C@H](C)N(C)C1=O [US20240148821, Compound 2078] ([NMeL]I[NMeA][Aze][NMeCha][Sar][X96]P[Ac5c][NMeGly(cPent)][NMeD]-Piperidide; lactam N-11)",11 nM
7,"CC[C@H](C)[C@@H]1NC(=O)[C@H](CC(C)C)N(C)C(=O)C[C@@H](C(=O)N2CCCCC2)N(C)C(=O)[C@H](C2CCCC2)N(C)C(=O)C2(CCCC2)NC(=O)[C@@H]2CCCN2C(=O)[C@H](CCc2ccc(C(F)F)c(F)c2)NC(=O)CN(C)C(=O)[C@H](CC2CCCCC2)N(C)C(=O)[C@@H]2CCN2C(=O)[C@H](C)N(C)C1=O [US20240148821, Compound 2085] ([NMeL]I[NMeA][Aze][NMeCha][Sar][X63]P[Ac5c][NMeGly(cPent)][NMeD]-Piperidide; lactam N-11)",2.9 nM

# Compounds with a lower IC50, results first:
row,IC50,SMILES
1,2.2 nM,"CC[C@H](C)[C@@H]1NC(=O)[C@H](CC(C)C)N(C)C(=O)C[C@@H](C(=O)N2CCCCC2)N(C)C(=O)[C@H](CC(C)C)N(C)C(=O)C2(CCCC2)NC(=O)[C@@H]2C[C@H](O)CN2C(=O)[C@H](CCc2ccc(C(F)(F)F)c(F)c2)NC(=O)CN(C)C(=O)[C@H](CC2CCCCC2)N(C)C(=O)CN(C)C(=O)CN(C)C1=O [US20240148821, Compound 544] ([NMeL]I[Sar][Sar][NMeCha][Sar][hPhe(3-F,4-CF3)][cisHyp][Ac5c][NMeL][NMeD]-Piperidide; lactam N-11)"
2,2 nM,"CC[C@H](C)[C@@H]1NC(=O)[C@H](C)N(C)C(=O)C[C@@H](C(=O)N2CCCCC2)N(C)C(=O)[C@H](C2CCCCC2)N(C)C(=O)C2(CCCC2)NC(=O)C2CCCN2C(=O)[C@H](CCc2cc(Cl)c(Cl)c(OC)c2)NC(=O)CN(C)C(=O)[C@H](C(=O)CC2CCCCC2)N(C)C(=O)CN(C)C(=O)CN(C)C1=O (stereo not given in full) [US20240148821, Compound 2081] ([NMeA]I[Sar][Sar][NMeGly(COCH2cHex)][Sar][X54][ξP][Ac5c][NMeChg][NMeD]-Piperidide; lactam N-11)"
3,0.39 nM,"CC[C@H](C)[C@@H]1NC(=O)[C@H](CC(C)C)N(C)C(=O)C[C@@H](C(=O)N2CCCC2)N(C)C(=O)[C@H](C2CCCCC2)N(C)C(=O)C2(CCC2)NC(=O)C2CC(F)(F)CN2C(=O)[C@H](CCc2cc(F)c(C(F)(F)F)c(F)c2)NC(=O)CN(C)C(=O)[C@H](C(=O)CC2CCCCC2)N(C)C(=O)CN(C)C(=O)CN(C)C1=O (stereo not given in full) [US20240148821, Compound 1192] ([NMeL]I[Sar][Sar][NMeGly(COCH2cHex)][Sar][hPhe(3,5-F2-4-CF3)][ξPro(4,4-F2)][Ac4c][NMeChg][NMeD]-Pyrrolidide; lactam N-11)"
